The record followed here is US12157730B2, “Heteroaryl derivative, method for producing same, and pharmaceutical composition comprising same as effective component” (VORONOI INC., priority 2019, dated 2024).

Experiment [1] addresses T1, Ba/F3 cell EGFR L858R/T790M (Homo sapiens, UniProt P00533, L858R/T790M).
T1 construct: expressed in transfected cells; host or cells: Ba/F3
Description: Ba/F3 cell proliferation suppression, EGFR L858R/T790M. The following applies: 72 hours after treatment, CellTiter-Glo. Type of experiment: cell-based. A digest of the protocol:
(§1)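 Seed 3000–5000 cells/well; after 24 h add compound (12 conc., 0.3 nM–50 um final); incubate 72 h; add CellTiter-Glo, 10 min room temperature; read luminescence; GI50 from % growth vs control, triplicate.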
A general note: In ATP-based viability assays light output follows the ATP content of the culture.

Experiment [2] relates to Ba/F3 cell EGFR Del19/T790M. Description: Ba/F3 cell proliferation suppression, EGFR Del19/T790M. The following applies: 72 hours after treatment, CellTiter-Glo. Type of experiment: cell-based. A digest of the protocol:
as §1

The target of another experiment is T2, Ba/F3 cell EGFR L858R (Homo sapiens, UniProt P00533, L858R).
T2 construct: expressed in transfected cells; host or cells: Ba/F3
Description: Ba/F3 cell proliferation suppression, EGFR L858R. Type of experiment: cell-based. The following applies: 72 hours after treatment, CellTiter-Glo. A digest of the protocol:
as §1

The target of experiment [3] is T3, Ba/F3 cell EGFR Exon20 ins NPH (Homo sapiens, UniProt P00533, INS773NPH).
T3 construct: expressed in transfected cells; host or cells: Ba/F3
Description: Ba/F3 cell proliferation suppression, EGFR Exon20 ins NPH. The format is cell-based. The following applies: for GI50: 72 hours after treatment, CellTiter-Glo; for Ba/F3 (NPH) Activity: GI50 class, Ba/F3 cell line with NPH inserted at Exon20 of EGFR, 72 hours. The essentials:
as §1

In experiment [4] the target is T4, Ba/F3 cell EGFR Exon20 ins SVD (Homo sapiens, UniProt P00533, INS770SVD).
T4 construct: expressed in transfected cells; host or cells: Ba/F3
Description: Ba/F3 cell proliferation suppression, EGFR Exon20 ins SVD. Type of experiment: cell-based. As to conditions: 72 hours after treatment, CellTiter-Glo. The essentials:
as §1

Experiment [5] concerns the target T5, Ba/F3 cell EGFR Exon20 ins FQEA (Homo sapiens, UniProt P00533, INS763FQEA).
T5 construct: expressed in transfected cells; host or cells: Ba/F3
Description: Ba/F3 cell proliferation suppression, EGFR Exon20 ins FQEA. The following applies: 72 hours after treatment, CellTiter-Glo. Type of experiment: cell-based. The method, then: (§2) The following experiment was carried out to evaluate the suppression activity of the compounds according to the present invention against proliferation of Ba/F3 and lung cancer cells which express EGFR mutations.
(§3) Of the cancer cell lines expressing the EGFR gene, A549 was cultured after adding 10% FBS (HyClone) to DMEM (Invitrogen), and RPMI-1640 (Invitrogen) with 10% FBS was used for the other cancer cells. For the Ba/F3 cells, RPMI-1640 with 10% FBS and 5 ng/ml IL-3 (R&D Systems) was used. The transduced Ba/F3 cells were cultured by adding 1 ug/ml puromycin (Invitrogen) to the same medium.
(§4) 24 hours before treatment with the compounds, 3000 to 5000 cells were distributed into each well of a white clear bottom 96 well plate (Corning). The compounds were diluted in dimethylsulfoxide (dilution ratio 3:1; 12 concentrations total) and injected 0.5 ul each for a final concentration of 0.3 nM to 50 um. As for measurement of live cells, 72 hours after treatment with the compounds, a CellTiter-Glo luminescent cell-viability reagent (Promega) was used to store the cells at room temperature for 10 minutes, followed by measurement of luminescence using a reader (SynergyNeo, Biotek). Each test was repeated three times.
(§5) The result was calculated as a cell growth ratio (%) compared to a control. The program GraphPad Prism version 5.0 was used to draw the graphs and calculate the GI50 values.

The subject of experiment [6] is Ba/F3 cell EGFR Exon20 ins H. Description: Ba/F3 cell proliferation suppression, EGFR Exon20 ins H. The format is cell-based. The following applies: 72 hours after treatment, CellTiter-Glo. The method, then: as §2, §3, §4, §5
Experiment [7] addresses T6, Ba/F3 cell EGFR Exon20 ins ASV (Homo sapiens, UniProt P00533, INS769ASV).
T6 construct: expressed in transfected cells; host or cells: Ba/F3
Description: Ba/F3 cell proliferation suppression, EGFR Exon20 ins ASV. The format is cell-based. As to conditions: 72 hours after treatment, CellTiter-Glo. The essentials:
as §1

Experiment [8] addresses T7, Ba/F3 cell HER2 Exon20 ins YVMA (Homo sapiens, UniProt P04626, INS775YVMA).
T7 construct: expressed in transfected cells; host or cells: Ba/F3
The experiment is described as follows: Ba/F3 cell proliferation suppression, HER2 Exon20 ins YVMA. The format is cell-based. The following applies: 72 hours after treatment, CellTiter-Glo. A digest of the protocol: as §1

Another experiment deals with Ba/F3 cell naive. The experiment is described as follows: Ba/F3 cell proliferation suppression, naive. The format is cell-based. The following applies: Mus musculus, BaF3; 72 hours after treatment, CellTiter-Glo. A digest of the protocol:
as §1

In another experiment the test system is PC9GR. Description: Lung cancer cell proliferation suppression, PC9GR. The format is cell-based. As to conditions: 72 hours after treatment, CellTiter-Glo. The method, then: as §2, §3, §4, §5
Another experiment has as its system H1975. Description: Lung cancer cell proliferation suppression, H1975. The format is cell-based. As to conditions: Homo sapiens, NCI-H1975; 72 hours after treatment, CellTiter-Glo. As for the experimental part: as §2, §3, §4, §5
For another experiment, the system named is PC9. The experiment is described as follows: Lung cancer cell proliferation suppression, PC9. As to conditions: Homo sapiens, PC-9; 72 hours after treatment, CellTiter-Glo. The format is cell-based. The method, then: as §2, §3, §4, §5
A short description of experiment [9]: Cancer cell proliferation suppression, A549. The format is cell-based. As to conditions: A459; 72 hours after treatment, CellTiter-Glo. The method, then: as §2, §3, §4, §5
Experiment [10] concerns scanMAX kinase panel (EGFR mutant, ERBB2, ERBB4). The experiment is described as follows: DiscoverX (eurofin) KINOMEscan (scanMAX platform) kinase profiling. Type of experiment: binding. An excerpt:
It was confirmed that the above example compounds had high selectivity against EGFR series genes. Accordingly, these can be useful in the treating of cancers wherein this kinase is expressed. In particular, as they have substantially outstanding lung cancer cell line proliferation suppression, they can be useful in the treatment of lung cancer, breast cancer, and brain cancer.

T7 sequence (P04626 with tags, fused parts or gaps INS775YVMA): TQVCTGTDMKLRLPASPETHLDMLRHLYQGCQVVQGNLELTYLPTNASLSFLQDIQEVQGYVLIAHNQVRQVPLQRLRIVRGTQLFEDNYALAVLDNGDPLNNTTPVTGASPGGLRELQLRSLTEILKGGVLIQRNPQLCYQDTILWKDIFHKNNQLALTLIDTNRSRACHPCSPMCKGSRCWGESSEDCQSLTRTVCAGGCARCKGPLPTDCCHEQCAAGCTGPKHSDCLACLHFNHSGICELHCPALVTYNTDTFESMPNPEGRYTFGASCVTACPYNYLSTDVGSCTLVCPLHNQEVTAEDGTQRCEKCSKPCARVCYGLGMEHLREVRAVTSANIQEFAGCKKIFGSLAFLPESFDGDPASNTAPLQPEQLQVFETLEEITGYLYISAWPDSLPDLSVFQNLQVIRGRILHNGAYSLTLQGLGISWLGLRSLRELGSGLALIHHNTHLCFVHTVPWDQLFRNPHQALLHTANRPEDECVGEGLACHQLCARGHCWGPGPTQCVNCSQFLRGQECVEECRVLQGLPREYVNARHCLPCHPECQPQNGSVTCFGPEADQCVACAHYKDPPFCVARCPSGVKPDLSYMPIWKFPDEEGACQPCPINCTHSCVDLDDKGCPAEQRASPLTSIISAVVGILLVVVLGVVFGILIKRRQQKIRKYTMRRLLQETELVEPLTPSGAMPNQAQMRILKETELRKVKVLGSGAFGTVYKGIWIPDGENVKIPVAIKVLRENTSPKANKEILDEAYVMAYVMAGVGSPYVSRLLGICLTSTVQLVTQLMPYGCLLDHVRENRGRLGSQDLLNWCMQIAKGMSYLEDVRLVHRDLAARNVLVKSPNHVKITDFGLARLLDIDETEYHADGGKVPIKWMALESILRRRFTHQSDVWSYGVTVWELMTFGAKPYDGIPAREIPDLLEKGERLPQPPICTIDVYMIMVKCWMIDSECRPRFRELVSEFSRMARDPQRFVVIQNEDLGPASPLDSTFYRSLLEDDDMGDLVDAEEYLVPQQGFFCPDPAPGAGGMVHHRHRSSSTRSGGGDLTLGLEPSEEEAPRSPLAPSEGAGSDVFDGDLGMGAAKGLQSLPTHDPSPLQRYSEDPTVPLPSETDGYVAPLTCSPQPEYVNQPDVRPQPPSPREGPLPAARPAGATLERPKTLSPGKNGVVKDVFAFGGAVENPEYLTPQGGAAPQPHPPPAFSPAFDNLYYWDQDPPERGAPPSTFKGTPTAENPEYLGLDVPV

For orientation: GI50 means the concentration at which growth is held to half of that of the control. Consider `C=CC(=O)Nc1cc(Nc2cc(N3OCC[C@@H]3c3ccccc3)ncn2)c(OC)cc1N1CC[C@@H](N(C)C)C1` [Example 13], for which the GI50 (in experiment [1]; in experiment [2]; at Ba/F3 cell EGFR L858R; in experiment [3]; in experiment [4]; in [5]) was less than 0.05 µM throughout. Besides, the GI50 in experiment [6] was less than 0.05 µM; in experiment [7], less than 0.05 µM; in experiment [8] it was less than 0.05 µM; in the experiment with Ba/F3 cell naive it was no less than 5 µM; with PC9GR it was 64 nM; in the experiment on H1975, 63 nM. Further, the GI50 in the experiment on PC9 was 12 nM; in [9], greater than 15000 nM. The “Ba/F3 (NPH) Activity” value in experiment [3] was “A (GI50 < 50 nM)”.
For `C=CC(=O)Nc1cc(Nc2cc(N3OCC[C@@H]3c3ccccc3)ncn2)c(OC)cc1N1CCN(C)CC1` [Example 6, N-(4-methoxy-2-(4-methylpiperazine-1-yl)-5-((6-((R)-3-phenylisoxazolidine-2-yl)pyrimidine-4-yl)amino)phenyl) acrylamide], the GI50 (in experiment [1]; in [2]; on Ba/F3 cell EGFR L858R; in experiment [3]; in experiment [4]; in [5]) was less than 0.05 µM in each case. The GI50 in [6] was less than 0.05 µM; in experiment [7] it was less than 0.05 µM; in experiment [8], less than 0.05 µM; in the experiment on Ba/F3 cell naive, no less than 5 µM; in the experiment on PC9GR it was 32 nM; in the experiment on H1975, 60 nM. Further, the values for the GI50 (in the experiment on PC9; in [9]) were 1 nM and greater than 15000 nM, respectively. Besides, the “Ba/F3 (NPH) Activity” value in [3] was “A (GI50 < 50 nM)”. Moreover, the “% inhibition of scanMAX Kinase profiling” value is reported as 100% in experiment [10] (EGFR(E746-A750del)); 100% in [10] (EGFR(G719C)); 100% in experiment [10] (EGFR(G719S)); 100% in [10] (EGFR(L747-E749del, A750P)); 100% in experiment [10] (EGFR(L747-T751del.Sins)); 100% in experiment [10] (EGFR(L858R)). Besides, the “% inhibition of scanMAX Kinase profiling” value was found to be 85% in [10] (EGFR(L858R.T790M)); 100% in experiment [10] (EGFR(L861q)); 96% in experiment [10] (EGFR(S752-I759del)); 100% in experiment [10] (EGFR(T790M)); 100% in experiment [10] (ERBB2); 100% in experiment [10] (ERBB4). Further, the “suppression activity against the EGFR mutant and ERBB2 and ERBB4” value in experiment [10] (KINOMEscan scanMAX kinase profiling) is “high suppression activity”.
On to `C=CC(=O)Nc1cc(Nc2cc(N3OCC[C@@H]3c3ccccc3)ncn2)c(OC)cc1N1CCN(C2CCN(C)CC2)CC1` [Example 10], for which the GI50 (in experiment [1]; in experiment [2]; on Ba/F3 cell EGFR L858R; in experiment [3]; in [4]; in experiment [5]) was less than 0.05 µM each time. Besides, the GI50 was less than 0.05 µM in [6]; less than 0.05 µM in experiment [7]; less than 0.05 µM in experiment [8]; no less than 5 µM in the experiment on Ba/F3 cell naive; 10 nM with PC9GR; 13 nM in the experiment on H1975. Moreover, the GI50 was 14 nM with PC9 and greater than 15000 nM in [9]. Moreover, the “Ba/F3 (NPH) Activity” value in experiment [3] is reported as “A (GI50 < 50 nM)”.
Take `C=CC(=O)Nc1cc(Nc2cc(N3OCC[C@@H]3c3ccccc3)ncn2)c(OC)cc1N1CCC(N(C)C)CC1` [Example 12, N-(2-(4-(dimethylamino)piperidine-1-yl)-4-methoxy-5-((6-((R)-3-phenylisoxazolidine-2-yl)pyrimidine-4-yl)amino)phenyl) acrylamide]: the GI50 (in experiment [1]; in [2]; at Ba/F3 cell EGFR L858R; in [3]; in experiment [4]; in experiment [5]) was less than 0.05 µM in each case. Moreover, the 50% growth inhibitory concentration (GI50) in [6] was less than 0.05 µM; in [7] it was less than 0.05 µM; in experiment [8], less than 0.05 µM; in the experiment with Ba/F3 cell naive it was no less than 5 µM; with PC9GR it was 5 nM; in the experiment on H1975 it was 8 nM. Also, the GI50 in the experiment on PC9 is 12 nM; in experiment [9], greater than 15000 nM. In experiment [3], the “Ba/F3 (NPH) Activity” value is on record as “A (GI50 < 50 nM)”.
Turning to `C=CC(=O)Nc1cc(Nc2cc(N3OCC[C@@H]3c3ccccc3)ncn2)c(OC)cc1N1CCN(CC)CC1` [Example 15, N-(2-(4-ethylpiperazine-1-yl)-4-methoxy-5-((6-((R)-phenylisoxazolidine-2-yl)pyrimidine-4-yl)amino)phenyl) acrylamide], the GI50 (in experiment [1]; in [2]; on Ba/F3 cell EGFR L858R; in experiment [3]; in experiment [4]; in [5]) was less than 0.05 µM throughout. Moreover, the GI50 in [6] is less than 0.05 µM; in experiment [7], less than 0.05 µM; in experiment [8], less than 0.05 µM; in the experiment with Ba/F3 cell naive, no less than 5 µM; with PC9GR, 6 nM; in the experiment with H1975 it was 13 nM. The GI50 with PC9 was 7 nM; in experiment [9] it was greater than 15000 nM. Moreover, the “Ba/F3 (NPH) Activity” value in experiment [3] is recorded as “A (GI50 < 50 nM)”.
As to `C=CC(=O)Nc1cc(Nc2cc(N3OCC[C@@H]3c3ccccc3)ncn2)ccc1N1CCN(C)CC1` [Example 29, N-(2-(4-methylpiperazine-1-yl)-5-((6-((R)-3-phenylisoxazolidine-2-yl)pyrimidine-4-yl)amino)phenyl) acrylamide], the GI50 (in experiment [1]; in [2]; on Ba/F3 cell EGFR L858R; in experiment [3]; in [4]; in experiment [5]) was less than 0.05 µM each time. For the same molecule, the 50% growth inhibitory concentration (GI50) in experiment [6] was less than 0.05 µM; in experiment [7], less than 0.05 µM; in [8] it was less than 0.05 µM; in the experiment on Ba/F3 cell naive it was no less than 5 µM. Moreover, the “Ba/F3 (NPH) Activity” value in [3] is on record as “A (GI50 < 50 nM)”.
In the case of `C=CC(=O)Nc1cc(Nc2cc(N3OCC[C@@H]3c3ccccc3)ncn2)ccc1N(C)CCN(C)C` [Example 28], the GI50 (in [1]; in [2]; at Ba/F3 cell EGFR L858R; in [3]; in experiment [4]; in experiment [5]) was less than 0.05 µM throughout. For the same molecule, the GI50 was less than 0.05 µM in experiment [6], less than 0.05 µM in [7], less than 0.05 µM in [8] and 0.5 to 5 µM in the experiment with Ba/F3 cell naive. The “Ba/F3 (NPH) Activity” value in [3] is “A (GI50 < 50 nM)”.
